Assay results from patent US8946446B2, “Pyrrolo sulfonamide compounds for modulation of orphan nuclear receptor RAR-related orphan receptor-γ (ROR-γ, NR1F3) activity and for the treatment of chronic inflammatory and autoimmune diseases” (Phenex Pharmaceuticals AG, priority 2011, dated 2015).
Like-named read-outs stand apart in the source and are kept apart here.

Target: T1, RORγ ligand binding domain (LBD) (Homo sapiens, UniProt P51449)
T1 construct: made in house; host or cells: E. coli BL-21 (BL3), vector pDEST15
T1 sequence (P51449 269-508 limits assumed): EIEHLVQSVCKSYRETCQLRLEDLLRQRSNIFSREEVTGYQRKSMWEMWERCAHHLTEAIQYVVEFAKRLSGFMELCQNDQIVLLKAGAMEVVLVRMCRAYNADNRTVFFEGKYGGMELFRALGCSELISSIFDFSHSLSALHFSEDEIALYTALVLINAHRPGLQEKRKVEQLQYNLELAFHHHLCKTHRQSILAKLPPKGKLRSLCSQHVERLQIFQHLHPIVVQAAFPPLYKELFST
Assay: TR-FRET Activity Assay (ligand sensing, RORγ-LBD / coactivator peptide interaction)
Assay type: biochemical
Text: This method measures the ability of putative ligands to modulate the interaction between the purified bacterial expressed RORγ ligand binding domain (LBD) and synthetic N-terminally biotinylated peptides which are derived from nuclear receptor coactivator proteins such as but not limited to SRC1 (NcoA1), SRC2 (NcoA2, TIF2), SRC3 (NcoA3), PGC1α, PGC1β, CBP, GRIP1, TRAP220, RIP140.
The ligand-binding domain (LBD) of RORγ was expressed as fusion protein with GST in […] cells using the vector pDEST15. Cells were lysed by lysozyme-treatment and sonication, and the fusion proteins purified over glutathione sepharose (Pharmacia) according to the manufacturers instructions. For screening of compounds for their influence on the RORγ-peptide interaction, the LANCE technology (Perkin Elmer) was applied. This method relies on the binding dependent energy transfer from a donor to an acceptor fluorophor attached to the binding partner of interest. For ease of handling and reduction of background from compound fluorescence LANCE technology makes use of generic fluorophore labels and time resolved detection assays were done in a final volume of 25 μL in a 384 well plate, in a Tris-based buffer system (20 mM Tris-HCl pH6.8; 60 mM KCl, 1 mM DTT; 5 mM MgCl2; 35 ng/μL BSA), containing 20-60 ng/well recombinantly expressed RORγ-LBD fused to GST, 200-600 nM N-terminally biotinylated peptide, 200 ng/well Streptavidin-xIAPC conjugate (Prozyme) and 6-10 ng/well Eu W1024-antiGST (Perkin Elmer). DMSO content of the samples was kept at 1%.
After generation of the Tris-based buffer system, the potentially RORγ modulating ligands were diluted. […] The LANCE signal was detected by a Perkin Elmer EnVision™ Multilabel Counter. The results were visualized by plotting the ratio between the emitted light at 665 nm and 615 nm. […] Ligands that promote the complex formation induce a concentration-dependent increase in time-resolved fluorescent signal.
The normalised TR-FRET assay values, using the following equation: 1000*665 nm measurement value/615 nm measurement value, were transferred to the program GraphPad Prism to generate graphs and dose response curves using the following equation:
Equation: Sigmoidal Dose-Response (Variable Slope) Y=Bottom+(Top-Bottom)/(1+10^((LogEC50−X)*HillSlope)) X is the logarithm of the concentration. Y is the response. Y starts at Bottom and goes to Top with a sigmoidal shape.
This is identical to the “four parameter logistic equation”. The IC50 values are calculated using this equation.

[1] = read-out: RORγ activity in the TR-FRET Activity Assay (IC50 FRET), Group

Row | SMILES | IC50 [1] | IC50
1 | Cc1c(S(N)(=O)=O)cc(-c2cc(C(F)(F)F)c3c(c2)C2(CCO3)CC2)n1CC1CCCCC1 [12/41] | 0.5 to 2 µM | –
2 | Cc1c(S(N)(=O)=O)cc(-c2c(C)n(S(=O)(=O)N3CCCCC3)c3ccccc23)n1CC1CCCCC1 [1/36] | > 2 µM | –
3 | Cc1c(S(N)(=O)=O)cc(-c2ccc(S(=O)(=O)NC(C)(C)CCO)c(C(F)(F)F)c2)n1CC1CCCCC1 [12/31] | 0.5 to 2 µM | –
4 | Cc1c(S(N)(=O)=O)cc(-c2cc(C(C)(C)C)c(OCC(=O)O)c(C(C)(C)C)c2)n1CC1CCCCC1 [16/9] | – | > 2 µM
5 | Cc1c(S(N)(=O)=O)cc(-c2cc3c(c(C(C)(C)C)c2)OCCC3=NO)n1CC1CCCCC1 [Example 6/1, 5-(8-(tert-Butyl)-4-(hydroxyimino)chroman-6-yl)-1-(cyclohexylmethyl)-2-methyl-1H-pyrrole-3-sulfonamide] | > 2 µM | –
6 | CNC(=O)COc1c(C(C)(C)C)cc(-c2cc(S(N)(=O)=O)c(C)n2CC2CCCCC2)cc1C(C)(C)C [16/10] | > 2 µM | –
7 | Cc1c(S(N)(=O)=O)cc(-c2cc(OCCCC(=O)O)cc(C(C)(C)C)c2)n1CC1CCCCC1 [Example 16, 4-(3-(tert-Butyl)-5-(1-(cyclohexylmethyl)-5-methyl-4-sulfamoyl-1H-pyrrol-2-yl)phenoxy)butanoic acid] | > 2 µM | –
8 | Cc1c(S(N)(=O)=O)cc(-c2cc(C(C)(C)C)cc(C(C)(C)C)c2)n1CC1CCCCO1 (stereo not drawn) [1/21] | – | 0.5 to 2 µM
9 | Cc1c(S(N)(=O)=O)cc(-c2cc(C(F)(F)F)c3ncccc3c2)n1CC1CCCCC1 [1/16] | > 2 µM | –
10 | Cc1c(S(N)(=O)=O)cc(-c2ccc(S(=O)(=O)NC(C)(C)C)c(C(C)(C)C)c2)n1CC1CCCCC1 [22/1] | 0.5 to 2 µM | –
11 | Cc1c(S(N)(=O)=O)cc(-c2cnc(OCC(C)(C)C)c(C(F)(F)F)c2)n1CC1CCCCC1 [34/4] | > 2 µM | –
12 | Cc1c(S(N)(=O)=O)cc(-c2ccc(S(=O)(=O)N3CCC3(C)C)c(C(C)(C)C)c2)n1CC1CCCCC1 [1/24] | < 0.5 µM | –
13 | Cc1c(S(N)(=O)=O)cc(-c2cc(C(C)(C)C)nc(C(F)(F)F)c2)n1CC1CCCCC1 [1/23] | 0.5 to 2 µM | –
14 | Cc1c(S(N)(=O)=O)cc(-c2ccc(N3CCOCC3=O)c(C(C)(C)C)c2)n1CC1CCCCC1 [12/35] | > 2 µM | –
15 | Cc1c(S(N)(=O)=O)cc(-c2cc(C(C)(C)C)cc(S(=O)(=O)N(C)C(C)(C)C)c2)n1CC1CCCCC1 [22/4] | – | 0.5 to 2 µM
16 | Cc1c(S(N)(=O)=O)cc(-c2cc3c(c(C(C)(C)C)c2)OCC(=O)N3C)n1CC1CCCCC1 [12/9] | > 2 µM | –
17 | Cc1c(S(N)(=O)=O)cc(-c2ccc(S(=O)(=O)N3CCCC(C)C3)c(C(C)(C)C)c2)n1CC1CCCCC1 (stereo not drawn) [1/27] | < 0.5 µM | –
18 | Cc1c(S(N)(=O)=O)cc(-c2cn(S(=O)(=O)NC(C)(C)C)c3ccccc23)n1CC1CCCCC1 [1/32] | – | > 2 µM
19 | Cc1c(S(N)(=O)=O)cc(-c2cc(C(C)(C)C)c(OCCO)c(C(C)(C)C)c2)n1CC1CCCCC1 [16/8] | – | 0.5 to 2 µM
20 | Cc1c(S(N)(=O)=O)cc(-c2ccc(S(=O)(=O)NC(C)(C)C)c(C(F)F)c2)n1CC1CCCCC1 [12/29] | < 0.5 µM | –
21 | Cc1c(S(N)(=O)=O)cc(-c2cn(S(=O)(=O)c3ccccc3Cl)c3ccccc23)n1CC1CCCCC1 [Example 53, 5-(1-((2-Chlorophenyl)sulfonyl)-1H-indol-3-yl)-1-(cyclohexylmethyl)-2-methyl-1H-pyrrole-3-sulfonamide] | 0.5 to 2 µM | –
22 | COCCOc1cc(-c2cc(S(N)(=O)=O)c(C)n2CC2CCCCC2)cc(C(C)(C)C)n1 [17/4] | 0.5 to 2 µM | –
23 | CCOc1cc(-c2cc(S(N)(=O)=O)c(C)n2CC2CCCCC2)cc(C(C)(C)C)n1 [17/2] | 0.5 to 2 µM | –
24 | CC(=NO)c1cc(-c2cc(S(N)(=O)=O)c(C)n2CC2CCCCC2)cc(C(C)(C)C)c1 [Example 6, 5-(3-(tert-Butyl)-5-(1-(hydroxyimino)ethyl)phenyl)-1-(cyclohexylmethyl)-2-methyl-1H-pyrrole-3-sulfonamide] | – | 0.5 to 2 µM

Second part, led by results:

Row | IC50 [1] | SMILES | IC50
25 | 0.5 to 2 µM | Cc1c(S(N)(=O)=O)cc(-c2cc(OCC3CC3)cc(C(C)(C)C)c2)n1CC1CCCCC1 [16/3] | –
26 | < 0.5 µM | CC(C)(C)c1cc(-c2cc(S(N)(=O)=O)c(Br)n2CC2CCCCC2)cc(C(C)(C)C)c1 [Example 31, 2-Bromo-1-(cyclohexylmethyl)-5-(3,5-di-tert-butylphenyl)-1H-pyrrole-3-sulfonamide] | –
27 | 0.5 to 2 µM | Cc1c(S(N)(=O)=O)cc(-c2cc(C(=O)NCC(C)C)cc(C(C)(C)C)c2)n1CC1CCCCC1 [Example 13, 3-(tert-Butyl)-5-(1-(cyclohexylmethyl)-5-methyl-4-sulfamoyl-1H-pyrrol-2-yl)-N-isobutylbenzamide] | –
28 | 0.5 to 2 µM | Cc1c(S(=O)(=O)NCc2nc(C(=O)O)co2)cc(-c2cc(C(C)(C)C)cc(C(C)(C)C)c2)n1CC1CCCCC1 [5/5] | –
29 | > 2 µM | Cc1c(S(N)(=O)=O)cc(-c2cc(O)cc(C(C)(C)C)c2)n1CC1CCCCC1 [Example 14, 5-(3-(tert-Butyl)-5-hydroxyphenyl)-1-(cyclohexylmethyl)-2-methyl-1H-pyrrole-3-sulfonamide] | –
30 | < 0.5 µM | Cc1c(S(=O)(=O)NCCC(N)=O)cc(-c2cc(C(C)(C)C)cc(C(C)(C)C)c2)n1CC1CCCCC1 [Example 40, 3-(1-(cyclohexylmethyl)-5-(3,5-di-tert-butylphenyl)-2-methyl-1H-pyrrole-3-sulfonamido)propanamide] | –
31 | < 0.5 µM | CC(C)(C)c1cc(-c2cc(S(N)(=O)=O)cn2CC2CCCCC2)cc(C(C)(C)C)c1 [Example 28, 1-(Cyclohexylmethyl)-5-(3,5-di-tert-butylphenyl)-1H-pyrrole-3-sulfonamide] | –
32 | > 2 µM | Cc1c(S(N)(=O)=O)cc(-c2cc(C(C)(C)C)cc(C(C)(C)CN)c2)n1CC1CCCCC1 [Example 48, 5-(3-(1-Amino-2-methylpropan-2-yl)-5-(tert-butyl)phenyl)-1-(cyclohexyl-methyl)-2-methyl-1H-pyrrole-3-sulfonamide] | –
33 | < 0.5 µM | CC(C)(C)c1cc(-c2cc(S(N)(=O)=O)c(Cl)n2CC2CCCCC2)cc(C(C)(C)C)c1 [Example 29, 2-Chloro-1-(cyclohexylmethyl)-5-(3,5-di-tert-butylphenyl)-1H-pyrrole-3-sulfonamide] | –
34 | 0.5 to 2 µM | Cc1c(S(N)(=O)=O)cc(-c2cc(C(=O)NC(C)(C)C)nc(C(C)(C)C)c2)n1CC1CCCCC1 [Example 20, N,6-Di-tert-butyl-4-(1-(cyclohexylmethyl)-5-methyl-4-sulfamoyl-1H-pyrrol-2-yl)picolinamide] | –
35 | > 2 µM | CC(=O)c1cc(-c2cc(S(N)(=O)=O)c(C)n2CC2CCCCC2)cc(C(C)(C)C)c1 [12/27] | –
36 | 0.5 to 2 µM | COCCOc1c(C(C)(C)C)cc(-c2cc(S(N)(=O)=O)c(C)n2CC2CCCCC2)cc1C(C)(C)C [16/11] | –
37 | < 0.5 µM | Cc1c(S(N)(=O)=O)cc(-c2cc(C(C)(C)C)c(F)c(C(C)(C)C)c2)n1CC1CCCCC1 [12/39] | –
38 | 0.5 to 2 µM | Cc1c(S(N)(=O)=O)cc(-c2cc(C(C)(C)C)cc(C(C)(C)C)c2)n1CC1CCC1 [1/39] | –
39 | > 2 µM | COc1cc(-c2cc(S(N)(=O)=O)c(C)n2CC2CCCCC2)cc(C(C)(C)C)c1 [16/1] | –
40 | 0.5 to 2 µM | Cc1c(S(N)(=O)=O)cc(-c2cc(C(C)(C)C)cc(C(C)(C)C)c2)n1CC1CCCC1 [1/38] | –
41 | 0.5 to 2 µM | Cc1c(S(N)(=O)=O)c(C)n(CC2CCCCC2)c1-c1cc(C(C)(C)C)cc(C(C)(C)C)c1 [12/8] | –
42 | > 2 µM | Cc1c(S(N)(=O)=O)cc(-c2cc(C(C)(C)C)cc(S(=O)(=O)NC(C)(C)C)c2)n1CC1CCCCC1 [22/3] | –
